Read-outs that look alike come from different tables or passages of the source.
Assays:
[1] = hydrophobicity scale of amino acids; assay type: physicochemical; conditions: scale on which glycine has the value 0.5
Text: Hydrophobicity is generally defined with respect to the partition of an amino acid between a nonpolar solvent and water. Hydrophobic amino acids are those acids which show a preference for the nonpolar solvent. Relative hydrophobicity of amino acids can be expressed on a hydrophobicity scale on which glycine has the value 0.5. On such a scale, amino acids which have a preference for water have values below 0.5 and those that have a preference for nonpolar solvents have a value above 0.5. As used herein, the term hydrophobic amino acid refers to an amino acid that, on the hydrophobicity scale has a value greater or equal to 0.5, in other words, has a tendency to partition in the […] which is at least equal to that of glycine.
A mixture including 40 weight % of an amino acid and 60 weight % DPPC is formed in a 70/30 vol/vol ethanol-water co-solvent and spray-dried and the geometric aerodynamic diameters for the particles are determined. In addition, the hydrophobicity and tap density may also be determined. Tap density may be determined using the equation provided above.

PAH = conditions: oral; cited from earlier work
pulmonary hypertension [2] = conditions: cited from earlier work
patients with severe PAH = conditions: versus placebo; cited from earlier work
[3] = glass stability of derivatized carbohydrates immersed in aqueous medium; assay type: physicochemical; conditions: THEX: saline medium at 37° C.; lactose derivative: water
pulmonary hypertension [4] = conditions: in vivo; cited from earlier work
[5] = dissolution of HDC glass discs in water; assay type: physicochemical
[6] = tested on: men with mild-to-severe ED; conditions: cited from earlier work
men with ED = conditions: cited from earlier work
[7] = tested on: patients with pulmonary hypertension; conditions: administered by aerosolization; cited from earlier work
[8] = tested on: African Green monkey kidney-derived cell line Vero; assay: toxicity of HDC glasses in vitro; assay type: cell-based; conditions: week of culture
Procedure: A saturated solution of TOAC in deionized distilled water (0.42 g in 20 mls) is tested for toxicity in vitro using the African Green monkey kidney-derived cell line Vero, in either a 10-fold serial dilution or by adding the TOAC powder directly to the tissue culture medium.

[9] = tested on: erectile dysfunction (ED); conditions: in vivo; cited from earlier work

N[C@@H](Cc1ccccc1)C(=O)O [Phenylalanine]
hydrophobicity [1]: 0.501

CC#CCC(C)[C@H](O)/C=C/[C@@H]1[C@H]2c3cccc(CCCC(=O)O)c3O[C@H]2C[C@H]1O (mixture of isomers) [Beraprost]
benefit in PAH (PAH): benefit in a study in PAH at 3 and 6 months but not at 9 or 12 months

COc1ccccc1Oc1c(NS(=O)(=O)c2ccc(C(C)(C)C)cc2)nc(-c2ncccn2)nc1OCCO [bosentan]
liver toxicity (pulmonary hypertension [2]; higher dose): liver toxicity occurred | six minute walk test (pulmonary hypertension [2]; whole group): improved

CC#CCC(C)[C@H](O)/C=C/[C@@H]1[C@H]2C/C(=C/CCCC(=O)O)C[C@H]2C[C@H]1O (some centres unmarked) [iloprost]
exercise capacity (patients with severe PAH): improved exercise capacity

CC(=O)OC[C@H]1O[C@@H](O[C@H]2[C@H](OC(C)=O)[C@@H](OC(C)=O)C(OC(=O)C(C)C)O[C@@H]2COC(C)=O)[C@H](OC(C)=O)[C@@H](OC(C)=O)[C@H]1OC(C)=O (some centres unmarked) [lactose isobutyrate heptaacetate]
stability of the glassy state when immersed [3]: very stable in the glassy state

Cc1cc2c(cc1CC(=O)c1sccc1S(=O)(=O)Nc1onc(C)c1Cl)OCO2 [sitaxsentan]
decrease in pulmonary vascular resistance (pulmonary hypertension [4]): 30% | six minute walk test (pulmonary hypertension [4]): improvement

CC(=O)OC[C@H]1O[C@H](OC(C)=O)[C@H](OC(C)=O)[C@@H](OC(C)=O)[C@@H]1OC(C)=O [α-D-glucose pentaacetate]
loss of original weight ([5]; disc in 1 l of water replaced daily, 7 days): 20%

N[C@@H](CCC(=O)O)C(=O)O [Glutamate]
hydrophobicity [1]: 0.043

CC(C)(C)CC(=O)O[C@@H]1[C@@H](OC(=O)CC(C)(C)C)[C@@H](O[C@H]2O[C@H](CO)[C@@H](OC(=O)CC(C)(C)C)[C@H](OC(=O)CC(C)(C)C)[C@H]2OC(=O)CC(C)(C)C)O[C@H](CO)[C@H]1OC(=O)CC(C)(C)C [THEX, Trehalose hexa-3,3-dimethylbutyrate]
stability of the glassy state when immersed [3]: stable in the glassy state

CC(=O)OC[C@H]1O[C@@H](OC(C)=O)[C@H](OC(C)=O)[C@@H](OC(C)=O)[C@@H]1OC(C)=O [β-D-glucose pentaacetate]
solubility of the glass in water [5]: poorly soluble in water | loss of original weight ([5]; disc 20 mm diameter, 2.5 mm thick, flowing water, 10 days): about 33%

CN1CC(=O)N2[C@H](c3ccc4c(c3)OCO4)c3[nH]c4ccccc4c3C[C@@H]2C1=O [Cialis, tadalafil]
most commonly reported treatment-emergent adverse effects ([6]; greater than or equal to 5 percent): headache, back pain, and upset stomach | patients who discontinued the study because of adverse events ([6]; in vivo): 5% | most commonly reported treatment-emergent adverse effects (men with ED; 10 mg, increased to 20 mg, at least one year): headache and upset stomach | discontinuation rate for any individual adverse event (men with ED; in vivo): less than 1% | patients who discontinued the study due to side effects (men with ED; in vivo): Five

CCCCC[C@H](O)/C=C/[C@@H]1[C@H]2C/C(=C/CCCC(=O)O)O[C@H]2C[C@H]1O [prostacyclin]
duration of effects [7]: 15 min

CC[C@H](C)[C@H](N)C(=O)O [Isoleucine]
hydrophobicity [1]: 0.943

CC(=O)OCC1OC(OC2OC(COC(C)=O)C(OC(C)=O)C(OC(C)=O)C2OC(C)=O)C(OC(C)=O)C(OC(C)=O)C1OC(C)=O (centres unmarked) [TOAC, trehalose octaacetate]
toxicity in vitro ([8]; saturated solution in water (0.42 g in 20 mls), 10-fold serial dilution or powder added to the medium): No toxic effects | cell division [8]: normal

CCCc1nc(C)c2c(=O)[nH]c(-c3cc(S(=O)(=O)N4CCN(CC)CC4)ccc3OCC)nn12 [Levitra, vardenafil HC1]
most commonly reported side effects [9]: headache, flushing, and stuffy or runny nose

Reference: patent US20060147520A1, “Treatment of pulmonary hypertension by inhaled iloprost with a microparticle formulation” (priority 2004, published 2006)
